For experiment [1], the system named is Escherichia coli. In words: Induction of erm(C) expression in Escherichia coli JM109 harboring Staphylococcus aureus erm(C)-containing pERMZalpha reporter plasmid at 10 mg/ml after 36 hrs at 37 degC by disc-based beta-galactosidase reporter gene assay. Format: functional, organism-based. (In a reporter assay the amount or activity of a reporter protein is the signal.)

In experiment [2] the test system is Escherichia coli. In words: Induction of erm(C) expression in Escherichia coli JM109 harboring Staphylococcus aureus erm(C)-containing pERMZ7 lacking codons 2 to 4 with additional mutations leader peptide cistrons reporter plasmid at 25 mg/ml after 36 hrs at 37 degC by disc-based beta-galactosidase reporter gene assay. Format: functional, organism-based.
The test system of experiment [3] is Escherichia coli. In words: Induction of erm(C) expression in Escherichia coli JM109 harboring Staphylococcus aureus erm(C)-containing pERMZalpha reporter plasmid after 36 hrs at 37 degC by disc-based beta-galactosidase reporter gene assay. Format: functional, organism-based.
The test system of experiment [4] is Escherichia coli. In words: Induction of erm(C) expression in Escherichia coli JM109 harboring Staphylococcus aureus erm(C)-containing pERMZdelta2-4 mutant leader peptide cistrons reporter plasmid at 25 mg/ml after 36 hrs at 37 degC by disc-based beta-galactosidase reporter gene assay. Format: functional, organism-based.
Experiment [5] concerns Escherichia coli. Briefly: Antimicrobial activity against Escherichia coli ZK796 harboring empty plasmid. Format: functional.
The test system of experiment [6] is Escherichia coli. In words: Antimicrobial activity against Escherichia coli ZK796 harboring Staphylococcus aureus erm(C)-containing pERMCT plasmid. Format: functional.
The test system of experiment [7] is Escherichia coli. In words: Induction of erm(C) expression in Escherichia coli ZK796 harboring Staphylococcus aureus erm(C)-containing pERMCT plasmid assessed as increase in A2058 dimethylation in 23S rRNA at 25% MIC after 4 hrs by primer extension assay. Format: functional, organism-based.
Experiment [8] relates to Escherichia coli. In words: Induction of erm(C) expression in Escherichia coli JM109 harboring Staphylococcus aureus erm(C)-containing pERMZalpha reporter plasmid at 8 mg/ml after 36 hrs at 37 degC by disc-based beta-galactosidase reporter gene assay. Format: functional, organism-based.
Experiment [9] has as its system Escherichia coli. Briefly: Induction of erm(C) expression in Escherichia coli JM109 harboring Staphylococcus aureus erm(C)-containing pERMZalpha reporter plasmid at 1.5 mg/ml after 36 hrs at 37 degC by disc-based beta-galactosidase reporter gene assay. Format: functional, organism-based.
Experiment [10] concerns Escherichia coli. In words: Induction of erm(C) expression in Escherichia coli JM109 harboring Staphylococcus aureus erm(C)-containing pERMZalpha reporter plasmid at 4.5 mg/ml after 36 hrs at 37 degC by disc-based beta-galactosidase reporter gene assay. Format: functional, organism-based.
For experiment [11], the system named is Escherichia coli. Briefly: Induction of erm(C) expression in Escherichia coli ZK796 harboring Staphylococcus aureus erm(C)-containing pERMCT plasmid assessed as increase in A2058 dimethylation in 23S rRNA at 0.8 ug/ml after 30 mins by primer extension assay. Format: functional, organism-based.
Experiment [12] relates to Escherichia coli. Briefly: Induction of erm(C) expression in Escherichia coli ZK796 harboring Staphylococcus aureus erm(C)-containing pERMCT plasmid assessed as increase in A2058 dimethylation in 23S rRNA at 0.4 ug/ml after 4 hrs by primer extension assay. Format: functional, organism-based.
In experiment [13] the test system is Escherichia coli. Briefly: Induction of erm(C) expression in Escherichia coli ZK796 harboring Staphylococcus aureus erm(C)-containing pERMCT plasmid assessed as increase in A2058 dimethylation in 23S rRNA at 0.4 ug/ml at 2 hrs by primer extension assay. Format: functional, organism-based.
The test system of experiment [14] is Escherichia coli. Briefly: Induction of erm(C) expression in Escherichia coli JM109 harboring Staphylococcus aureus erm(C)-containing pERMZalpha reporter plasmid after 36 hrs at 25 mg/ml 37 degC by disc-based beta-galactosidase reporter gene assay. Format: functional, organism-based.

≈ marks a conversion by molar mass, not a printed value. Calls of active or inactive are those of the source. No cut-off for these calls is given here.

On to `CC[C@H]1OC(=O)C[C@@H](O)[C@H](C)[C@@H](O[C@@H]2O[C@H](C)[C@@H](O[C@H]3C[C@@](C)(O)[C@@H](O)[C@H](C)O3)[C@H](N(C)C)[C@H]2O)[C@@H](CC=O)C[C@@H](C)C(=O)/C=C/C(C)=C/[C@@H]1CO[C@@H]1O[C@H](C)[C@@H](O)[C@@H](OC)[C@H]1OC`, for which, in experiment [1], the outcome was inactive.

In general, MIC refers to the lowest concentration that inhibits growth of the organism. Turning to `CC[C@H]1OC(=O)[C@H](C)C(=O)[C@H](C)[C@@H](O[C@@H]2O[C@H](C)C[C@H](N(C)C)[C@H]2O)[C@](C)(OCC=Cc2cnc3ccccc3c2)C[C@@H](C)C(=O)[C@H](C)[C@H]2NC(=O)O[C@@]21C` [CETHROMYCIN], the outcome in [2] and in [4] was inactive. Moreover, the result in [3] and in experiment [7] was Active. The MIC in experiment [5] and in [6] was 1.5 mg/L (≈ 1.96 µM) each time.

Take `CC[C@H]1OC(=O)[C@@](C)(F)C(=O)[C@H](C)[C@@H](O[C@@H]2O[C@H](C)C[C@H](N(C)C)[C@H]2O)[C@](C)(OC)C[C@@H](C)C(=O)[C@H](C)[C@@H]2N(CCCCn3cnc(-c4cccnc4)c3)C(=O)O[C@@]21C`: the result in [2] and in experiment [4] was inactive. Besides, in [3], the result was Active.

Consider SPIRAMYCIN, for which the result in experiment [1] was inactive.

As for `O=C(N[C@H](CO)[C@H](O)c1ccc([N+](=O)[O-])cc1)C(Cl)Cl` [CHLORAMPHENICOL], the minimum inhibitory concentration (MIC) in [5] and in experiment [6] was 2 mg/L (≈ 6.19 µM) in each case.

Regarding `CC[C@H]1OC(=O)[C@H](C)[C@@H](O[C@H]2C[C@@](C)(OC)[C@@H](O)[C@H](C)O2)[C@H](C)[C@@H](O[C@@H]2O[C@H](C)C[C@H](N(C)C)[C@H]2O)[C@](C)(OC)C[C@@H](C)C(=O)[C@H](C)[C@@H](O)[C@]1(C)O`, the result in experiment [2] and in experiment [4] was inactive. Further, the outcome in [8] was Active.

For `CC[C@H]1OC(=O)[C@H](C)[C@@H](O[C@H]2C[C@@](C)(OC)[C@@H](O)[C@H](C)O2)[C@H](C)[C@@H](O[C@@H]2O[C@H](C)C[C@H](N(C)C)[C@H]2O)[C@](C)(OC)C[C@@H](C)C(=O)[C@H](C)[C@@H]2N(NCCCc3ccnc4ccccc34)C(=O)O[C@@]21C`, the outcome in [2] and in experiment [4] was inactive. Also, in [1], the outcome was Active.

In the case of `CC[C@H]1OC(=O)[C@H](C)C(=O)[C@H](C)[C@@H](O[C@@H]2O[C@H](C)C[C@H](N(C)C)[C@H]2O)[C@](C)(OC)C[C@@H](C)C(=O)[C@H](C)[C@@H]2N(NCCc3ccccc3)C(=O)O[C@@]21C`, the result in [2] and in experiment [4] was inactive.

Consider `CC[C@H]1OC(=O)[C@H](C)[C@@H](O[C@H]2C[C@@](C)(OC)[C@@H](O)[C@H](C)O2)[C@H](C)[C@@H](O[C@@H]2O[C@H](C)C[C@H](N(C)C)[C@H]2O)[C@](C)(O)C[C@@H](C)/C(=N\OCOCCOC)[C@H](C)[C@@H](O)[C@]1(C)O`, for which the result in experiment [2] and in experiment [4] was inactive.

As for `CC[C@H]1OC(=O)[C@H](C)C(=O)[C@H](C)[C@@H](O[C@@H]2O[C@H](C)C[C@H](N(C)C)[C@H]2O)[C@](C)(OC)C[C@@H](C)C(=O)[C@H](C)[C@@H]2N(NCCCc3ccnc4ccccc34)C(=O)O[C@@]21C`, the outcome in [2] and in [4] was inactive. Besides, the result in experiment [9] and in experiment [3] was Active.

Consider `CC[C@H]1OC(=O)[C@H](C)[C@@H](O[C@H]2C[C@@](C)(OC)[C@@H](O)[C@H](C)O2)[C@H](C)[C@@H](O[C@@H]2O[C@H](C)C[C@H](N(C)C)[C@H]2O)[C@](C)(O)C[C@@H](C)C(=O)[C@H](C)[C@@H](O)[C@]1(C)O` [ERYTHROMYCIN], for which the result in [2] and in [4] was inactive. The outcome in [10], in experiment [11] and in experiment [7] was Active. In addition, the values for the MIC in experiment [5] and in experiment [6] were 3 mg/L (≈ 4.09 µM) and 25 mg/L (≈ 34.1 µM), respectively.

Consider `CC[C@H]1OC(=O)[C@H](C)C(=O)[C@H](C)[C@@H](O[C@@H]2O[C@H](C)C[C@H](N(C)C)[C@H]2O)[C@](C)(OC)C[C@@H](C)C(=O)[C@H](C)[C@H]2N(CCCCn3cnc(-c4cccnc4)c3)C(=O)O[C@]12C` [TELITHROMYCIN], for which the result in experiment [2], in experiment [4] and in experiment [13] was inactive. For the same molecule, the result in [9], in experiment [3], in [12] and in experiment [7] was Active. In addition, the MIC in experiment [5] and in [6] was 1.5 mg/L (≈ 1.85 µM) throughout.

Take `CC[C@H]1OC(=O)[C@H](C)[C@@H](O[C@H]2C[C@@](C)(OC)[C@@H](O)[C@H](C)O2)[C@H](C)[C@@H](O[C@@H]2O[C@H](C)C[C@H](N(C)C)[C@H]2O)[C@](C)(OC)C[C@@H](C)C(=O)[C@H](C)[C@@H]2N(CCCCn3cnc(-c4cccnc4)c3)C(=O)O[C@@]21C`: the result in experiment [1] and in experiment [7] was Active.

`CC[C@H]1OC(=O)[C@H](C)[C@@H](O[C@H]2C[C@@](C)(OC)[C@@H](O)[C@H](C)O2)[C@H](C)[C@@H](O[C@@H]2O[C@H](C)C[C@H](N(C)C)[C@H]2O)[C@](C)(O)C[C@@H](C)CN(C)[C@H](C)[C@@H](O)[C@]1(C)O`: the result in experiment [2], in [14] and in experiment [4] was inactive. The outcome in experiment [7] was Active.

Regarding `CO[C@@H]1[C@@H](O[C@@H]2O[C@H](C)[C@@H](O[C@H]3C[C@@](C)(O)[C@@H](OC(=O)CC(C)C)[C@H](C)O3)[C@H](N(C)C)[C@H]2O)[C@@H](CC=O)C[C@@H](C)[C@@H](O)/C=C/C=C/C[C@@H](C)OC(=O)C[C@H]1OC(C)=O`, the result in experiment [1] was inactive.

For the origin of these results see ChEMBL document CHEMBL1255238, “Induction of erm(C) expression by noninducing antibiotics” (2008).
